From patent US10947213B1 (Merck Patent GmbH, priority 2015, dated 2021) come the findings set out here.

Structures can show the parent of a compound that is named as a salt. Where only a bound is given, the exact number is not on record here.

The assay deals with T1, TLR7/NFKb HEK cells (Homo sapiens, UniProt Q9NYK1).
T1 construct: expressed in transfected cells; host or cells: HEK cells (TLR7/NFKb reporter line)
T1 sequence (Q9NYK1 27-1049): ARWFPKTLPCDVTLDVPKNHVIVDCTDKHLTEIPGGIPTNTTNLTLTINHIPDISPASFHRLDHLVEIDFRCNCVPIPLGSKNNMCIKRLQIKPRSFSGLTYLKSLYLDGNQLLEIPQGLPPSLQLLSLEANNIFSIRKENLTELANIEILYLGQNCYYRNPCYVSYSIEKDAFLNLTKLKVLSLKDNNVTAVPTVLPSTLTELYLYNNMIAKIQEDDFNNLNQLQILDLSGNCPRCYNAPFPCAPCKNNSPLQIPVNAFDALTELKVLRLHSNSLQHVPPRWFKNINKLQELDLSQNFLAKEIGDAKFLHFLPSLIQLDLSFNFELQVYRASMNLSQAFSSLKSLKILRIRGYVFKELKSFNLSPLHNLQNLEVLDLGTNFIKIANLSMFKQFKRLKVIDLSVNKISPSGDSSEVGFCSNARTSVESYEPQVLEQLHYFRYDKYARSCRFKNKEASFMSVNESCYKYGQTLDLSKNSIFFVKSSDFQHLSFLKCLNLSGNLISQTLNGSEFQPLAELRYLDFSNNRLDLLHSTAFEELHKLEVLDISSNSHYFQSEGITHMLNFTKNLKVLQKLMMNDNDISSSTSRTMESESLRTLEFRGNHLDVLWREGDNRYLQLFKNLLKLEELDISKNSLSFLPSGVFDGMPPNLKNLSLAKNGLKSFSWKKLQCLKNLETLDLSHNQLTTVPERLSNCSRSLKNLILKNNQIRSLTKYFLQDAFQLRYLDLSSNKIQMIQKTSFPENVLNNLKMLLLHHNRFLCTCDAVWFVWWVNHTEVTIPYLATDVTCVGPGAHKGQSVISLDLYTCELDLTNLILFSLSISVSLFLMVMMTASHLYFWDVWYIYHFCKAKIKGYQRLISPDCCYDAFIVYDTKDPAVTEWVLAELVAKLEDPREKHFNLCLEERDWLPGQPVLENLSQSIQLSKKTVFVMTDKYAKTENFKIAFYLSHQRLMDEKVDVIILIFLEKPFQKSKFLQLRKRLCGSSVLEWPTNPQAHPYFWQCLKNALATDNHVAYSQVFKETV
The assay is described as follows: HEK Cell Assay (TLR7/NFKb reporter, Steady-Glo luciferase readout). Format: cell-based. The settings on record: 30 min compound preincubation, then R*48 agonist for 5 hours, read-out: Potency. In a few lines:
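Steady-Glo luminescence after 5 h stimulation with R*48 agonist, following 30 min compound preincubation. Assay run in HEK cells carrying a TLR7/NFKb luciferase reporter, plated at 5000 cells/well and grown 24 h at 37° C (10% CO2) before treatment.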
As to `CCN(CC)CC(=O)NC1CCN(c2ccnc3nccnc23)CC1` [Compound 390, 2-Diethylamino-N-(1-pyrido[2,3-b]pyrazin-8-yl-piperidin-4-yl)-acetamide], the IC50 fell in the range of 1000 to 10000 nM.

`N#Cc1ccc(N2C[C@H](NC(=O)C3CCN(C4CC4)CC3)C[C@H](C(F)(F)F)C2)c2cccnc12` [Compound 578, 1-Cyclopropyl-piperidine-4-carboxylic acid [(3R,5S)-1-(8-cyano-quinolin-5-yl)-5-trifluoromethyl-piperidin-3-yl]-amide]: the IC50 was less than 1000 nM.

Take `C[C@H]1C[C@@H](NC2CCN(C)C2=O)CN(c2ccnc3nccnc23)C1` (stereo partly drawn) [Compound 126, 1-methyl-3-[[(3R,5S)-5-methyl-1-[pyrido[2,3-b]pyrazin-8-yl]piperidin-3-yl]amino]pyrrolidin-2-one]: the IC50 is more than 10000 nM.

Consider `CCN(CC)CC(=O)N(C)CC1CCN(c2ccnc3nccnc23)CC1` [Compound 405, 2-Diethylamino-N-methyl-N-(1-pyrido[2,3-b]pyrazin-8-yl-piperidin-4-ylmethyl)-acetamide], for which the IC50 fell in the range of 1000 to 10000 nM.

`C[C@H]1C[C@@H](N)CN(c2ccc(C(F)(F)F)c3ncccc23)C1` [Compound 66, (3R,5S)-5-methyl-1-[8-(trifluoromethyl)quinolin-5-yl]piperidin-3-amine]: the IC50 was less than 1000 nM.

On to `C[C@H]1C[C@@H](NCC(N)=O)CN(c2ccnc3nccnc23)C1` [Compound 121, 2-[[(3R,5S)-5-methyl-1-[pyrido[2,3-b]pyrazin-8-yl]piperidin-3-yl]amino]acetamide], for which the IC50 is more than 10000 nM.

For the compound `O=C(NC1CCN(CC2CC2)C1)C1CCN(c2ccc(C(F)(F)F)c3ncccc23)CC1` (single isomer, unassigned) [Compound 445], the IC50 is less than 1000 nM.

On to `Cc1ccc(N2C[C@H](N)C[C@H](C(F)(F)F)C2)c2cccnc12` [Compound 586, (3R,5S)-1-(8-Methyl-quinolin-5-yl)-5-trifluoromethyl-piperidin-3-ylamine hydrochloride], for which the IC50 was less than 1000 nM.

Turning to `C[C@H]1C[C@@H](NC(=O)CN2CC(O)C2)CN(c2ccc(C(F)(F)F)c3nccnc23)C1` [Compound 296, 2-(3-hydroxyazetidin-1-yl)-N-[(3R,5S)-5-methyl-1-[8-(trifluoromethyl)quinoxalin-5-yl]piperidin-3-yl]acetamide], the IC50 is less than 1000 nM.

On to `Cc1ncc(N2C[C@@H](C)C[C@@H](NC(=O)CCC(=O)N3CCC3)C2)c2cccnc12` [Compound 566, 4-Azetidin-1-yl-N-[(3R,5S)-5-methyl-1-(8-methyl-[1,7]naphthyridin-5-yl)-piperidin-3-yl]-4-oxo-butyramide], for which the IC50 was in the range of 1000 to 10000 nM.

For the compound `C[C@H]1C[C@@H](NC(=O)C2(O)CC2)CN(c2ccc(C(F)(F)F)c3nccnc23)C1` [Compound 251, 1-hydroxy-N-[(3R,5S)-5-methyl-1-[8-(trifluoromethyl)quinoxalin-5-yl]piperidin-3-yl]cyclopropane-1-carboxamide], the IC50 fell in the range of 1000 to 10000 nM.

As for `C[C@H]1C[C@@H](NC(=O)[C@@H](N)c2ccccc2)CN(c2ccc(C#N)c3nccnc23)C1` [Compound 117, (2S)-2-amino-N-[(3R,5S)-1-(8-cyanoquinoxalin-5-yl)-5-methylpiperidin-3-yl]-2-phenylacetamide], the IC50 is less than 1000 nM.

With `C[C@H]1C[C@@H](NC2CCC(O)CC2)CN(c2ccc(C#N)c3nccnc23)C1` (single isomer, unassigned) [Compound 135], the IC50 is less than 1000 nM.

`COC(C)C(=O)N[C@@H]1C[C@H](C)CN(c2ccc(C#N)c3nccnc23)C1` (single isomer, unassigned) [Compound 159]: the IC50 fell in the range of 1000 to 10000 nM.

Turning to `CC(C(=O)N[C@@H]1C[C@H](C)CN(c2ccc(C(F)F)c3nccnc23)C1)N1CCC(O)CC1` (stereo partly drawn) [Compound 325, N-[(3R,5S)-1-[8-(difluoromethyl)quinoxalin-5-yl]-5-methylpiperidin-3-yl]-2-(4-hydroxypiperidin-1-yl)propanamide], the IC50 fell in the range of 1000 to 10000 nM.

`CC(C)(C)CC(=O)NCC1CCN(c2ccnc3nccnc23)CC1` [Compound 399, 3,3-Dimethyl-N-(1-pyrido[2,3-b]pyrazin-8-yl-piperidin-4-ylmethyl)-butyramide]: the IC50 is more than 10000 nM.

Take `C[C@H]1C[C@@H](NC(=O)CNS(C)(=O)=O)CN(c2ccc(C#N)c3nccnc23)C1` [Compound 140, N-[(3R,5S)-1-(8-cyanoquinoxalin-5-yl)-5-methylpiperidin-3-yl]-2-methanesulfonamidoacetamide]: the IC50 was less than 1000 nM.

Take `CN1CCN(CC(=O)NC2CN(c3ccc(C(F)(F)F)c4ncccc34)CC(F)(F)C2)CC1` (stereo not shown) [Compound 511, N-[5,5-Difluoro-1-(8-trifluoromethyl-quinolin-5-yl)-piperidin-3-yl]-2-(4-methyl-piperazin-1-yl)-acetamide]: the IC50 was less than 1000 nM.

As for `C[C@H]1C[C@@H](NC(=O)CC(C)(C)C)CN(c2ccc(C#N)c3nccnc23)C1` [Compound 40, N-((3R,5S)-1-(8-cyanoquinoxalin-5-yl)-5-methylpiperidin-3-yl)-3,3-dimethylbutanamide], the IC50 is less than 1000 nM.

For `CC(C)[C@@H](O)C(=O)N[C@H]1CN(c2ccc(C#N)c3nccnc23)CC(C)(C)C1` [Compound 213, (2R)—N-[(3R)-1-(8-cyanoquinoxalin-5-yl)-5,5-dimethylpiperidin-3-yl]-2-hydroxy-3-methylbutanamide], the IC50 was less than 1000 nM.

Consider `C[C@H]1C[C@@H](NC(=O)C(N)C2CC2)CN(c2ccc(C(F)(F)F)c3nccnc23)C1` (stereo partly drawn) [Compound 294, 2-amino-2-cyclopropyl-N-[(3R,5S)-5-methyl-1-[8-(trifluoromethyl)quinoxalin-5-yl]piperidin-3-yl]acetamide], for which the IC50 was less than 1000 nM.

For the compound `CN(C(=O)CN1CCOCC1)[C@H]1C[C@@H](C2CC2)CN(c2ccc(F)c3ncccc23)C1` (racemic) [Compound 368, cis-N-[5-cyclopropyl-1-(8-fluoroquinolin-5-yl)piperidin-3-yl]-N-methyl-2-(morpholin-4-yl)acetamide], the IC50 was more than 10000 nM.

On to `C[C@@H]1CN(c2ncc(F)c3nccnc23)C[C@H](C)O1` [Compound 455, cis-5-(2,6-Dimethyl-morpholin-4-yl)-8-fluoro-pyrido[3,4-b]pyrazine], for which the IC50 is more than 10000 nM.

Take `N#Cc1ccc(N2C[C@H](NCCC(F)(F)F)C[C@H](C(F)(F)F)C2)c2nccnc12` (relative stereo) [Compound 95, cis-8-[3-(trifluoromethyl)-5-[(3,3,3-trifluoropropyl)amino]piperidin-1-yl]quinoxaline-5-carbonitrile]: the IC50 was in the range of 1000 to 10000 nM.

In the case of `CN1CCC(NC(=O)C2CN(c3ccc(C#N)c4nccnc34)CC(F)(F)C2)CC1` (stereo not shown) [Compound 529, 1-(8-Cyano-quinoxalin-5-yl)-5,5-difluoro-piperidine-3-carboxylic acid (1-methyl-piperidin-4-yl)-amide], the IC50 is less than 1000 nM.

As to `C[C@H]1C[C@@H](NC(=O)[C@H](N)CO)CN(c2ccnc3nccnc23)C1` [Compound 107, (2R)-2-amino-3-hydroxy-N-[(3R,5S)-5-methyl-1-[pyrido[2,3-b]pyrazin-8-yl]piperidin-3-yl]propanamide], the IC50 is more than 10000 nM.

`C[C@H]1C[C@@H](NCC(N)=O)CN(c2ccc(C(F)(F)F)c3ncccc23)C1` [Compound 570]: the IC50 is less than 1000 nM.

For the compound `C[C@H]1C[C@@H](NC(C)(C)CO)CN(c2ccc(C#N)c3nccnc23)C1` [Compound 231, 8-[(3R,5S)-3-[(1-hydroxy-2-methylpropan-2-yl)amino]-5-methylpiperidin-1-yl]quinoxaline-5-carbonitrile], the IC50 is less than 1000 nM.

In the case of `C[C@H]1C[C@@H](NC(=O)CN2CCC(F)(F)CC2)CN(c2ccc(C(F)(F)F)c3ncccc23)C1` [Compound 350, 2-(4,4-difluoropiperidin-1-yl)-N-[(3R,5S)-5-methyl-1-[8-(trifluoromethyl)quinolin-5-yl]piperidin-3-yl]acetamide], the IC50 was less than 1000 nM.

Regarding `C[C@H]1C[C@@H](NC(=O)CN2CC(O)C2)CN(c2ccc(C(F)F)c3nccnc23)C1` [Compound 320, N-[(3R,5S)-1-[8-(difluoromethyl)quinoxalin-5-yl]-5-methylpiperidin-3-yl]-2-(3-hydroxyazetidin-1-yl)acetamide], the IC50 is 1000 to 10000 nM.

For `N#Cc1ccc(N2CC(N)CC(C(F)(F)F)C2)c2nccnc12` (single isomer, unassigned) [Compound 82], the IC50 was less than 1000 nM.
